Reference: US11124516B2, “Pyrrolo[1,2-A]pyrimidinyl carboxamide compounds and their use in the treatment of medical disorders” (Bial—Biotech Investments, Inc., priority 2016, dated 2021)
Converted amounts (≈) assume the structure as drawn.

Tested on: not listed separately
Assay: Compound solubility in water
Format: physicochemical
Details: not given

Row | solubility [µg/mL] | Structure (SMILES)
1 | 23.2 (≈ 72 µM) | CCC(NC(=O)c1ccn2c(C)cc(C)nc12)c1cc(C)ccn1 (stereo not drawn) [IV-54]
2 | 17.6 (≈ 54.6 µM) | CCC(NC(=O)c1ccn2c(C)cc(C)nc12)c1cccc(C)n1 (stereo not drawn) [IV-55]
3 | 2 (≈ 6.15 µM) | CCC(NC(=O)c1ccn2c(C)cc(C)nc12)c1ccc(F)cc1 (stereo not drawn) [IV-56]
4 | 18.5 (≈ 54.5 µM) | CCC(NC(=O)c1ccn2c(C)cc(C)nc12)c1nc(C2CC2)no1 (stereo not drawn) [IV-58]
5 | 0.8 (≈ 2.34 µM) | CCC(NC(=O)c1ccn2c(C)cc(C)nc12)c1ccc(Cl)cc1 (stereo not drawn) [IV-59]
6 | 1.9 (≈ 5.57 µM) | COc1ccc(C(C)NC(=O)c2ccn3c(C)cc(C)nc23)cc1F (stereo not drawn) [IV-61]
7 | 1.1 (≈ 3.01 µM) | CCC(NC(=O)c1ccn2c(C)cc(C)nc12)c1ccc2c(c1)OCCO2 (stereo not drawn) [IV-62]
8 | 4.9 (≈ 13.8 µM) | Cc1cc(C)n2ccc(C(=O)NC(C)c3nc4c(s3)CCCC4)c2n1 (stereo not drawn) [IV-64]
9 | 1 (≈ 2.98 µM) | Cc1cc(C)n2ccc(C(=O)NC(CC(C)C)c3ccccc3)c2n1 (stereo not drawn) [IV-66]
10 | 1.5 (≈ 4.15 µM) | Cc1cc(C)n2ccc(C(=O)NC(C)C3(c4ccccc4)CCCC3)c2n1 (stereo not drawn) [IV-73]
11 | 2.1 (≈ 6.22 µM) | CCOc1ccccc1C(C)NC(=O)c1ccn2c(C)cc(C)nc12 (stereo not drawn) [IV-78]
12 | 2.6 (≈ 7.44 µM) | Cc1cc(C)n2ccc(C(=O)NC(C)c3ccc4c(c3)CC(C)O4)c2n1 (stereo not drawn) [IV-79]

Biological target: T1, glucocerebrosidase (Gcase) (Homo sapiens, UniProt P04062)
T1 sequence (P04062 40-536): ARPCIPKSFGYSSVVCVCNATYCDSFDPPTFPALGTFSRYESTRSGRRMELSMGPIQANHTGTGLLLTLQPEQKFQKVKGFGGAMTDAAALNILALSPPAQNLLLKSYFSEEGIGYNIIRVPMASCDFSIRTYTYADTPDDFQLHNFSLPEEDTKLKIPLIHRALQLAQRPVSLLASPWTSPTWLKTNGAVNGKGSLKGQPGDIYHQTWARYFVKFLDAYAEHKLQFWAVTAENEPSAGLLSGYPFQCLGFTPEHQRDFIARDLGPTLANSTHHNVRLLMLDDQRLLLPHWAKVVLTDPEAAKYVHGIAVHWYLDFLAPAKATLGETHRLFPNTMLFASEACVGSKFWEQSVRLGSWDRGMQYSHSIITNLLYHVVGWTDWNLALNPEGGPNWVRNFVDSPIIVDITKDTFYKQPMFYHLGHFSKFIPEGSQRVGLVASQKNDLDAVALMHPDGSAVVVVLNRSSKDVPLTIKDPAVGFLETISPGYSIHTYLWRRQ
Assay: Glucocerebrosidase (Gcase) activation assay, 4-methylumbelliferyl-beta-D-glucopyranoside substrate, fluorescence
Format: biochemical
Details: 0.25 h, pH 4.7, test compound at 0.1 μM, 10 nM GCase, 100 nM saposin C, read-out: Percent Gcase Activation 0.1 μM Test Compound
Summary of the method: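 10 nM GCase with 100 nM saposin C in Triton/phosphatidylserine micelles (citrate-phosphate, pH 4.7), pre-incubated 30 min at room temperature with compound, then 2 mM 4-methylumbelliferyl-β-D-glucoside stock mixed 1:1; 15 min reaction, stopped with glycine pH 12.5, fluorescence at 365/440 nm. Activation scored at 1.0 and 0.1 μM; 8-point curves from 5 μM top.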

Row | activation at 0.1 µM [%] | Structure (SMILES)
13 | < 10 | CCC(NC(=O)c1ccn2c(C)cc(C)nc12)c1cc(C)ccn1 (stereo not drawn) [IV-54]
14 | < 10 | CCC(NC(=O)c1ccn2c(C)cc(C)nc12)c1cccc(C)n1 (stereo not drawn) [IV-55]
15 | > 20 | CCC(NC(=O)c1ccn2c(C)cc(C)nc12)c1ccc(F)cc1 (stereo not drawn) [IV-56]
16 | < 10 | CCC(NC(=O)c1ccn2c(C)cc(C)nc12)c1nc(C2CC2)no1 (stereo not drawn) [IV-58]
17 | > 20 | CCC(NC(=O)c1ccn2c(C)cc(C)nc12)c1ccc(Cl)cc1 (stereo not drawn) [IV-59]
18 | > 20 | COc1ccc(C(C)NC(=O)c2ccn3c(C)cc(C)nc23)cc1F (stereo not drawn) [IV-61]
19 | 10 to 20 | CCC(NC(=O)c1ccn2c(C)cc(C)nc12)c1ccc2c(c1)OCCO2 (stereo not drawn) [IV-62]
20 | 10 to 20 | Cc1cc(C)n2ccc(C(=O)NC(C)c3nc4c(s3)CCCC4)c2n1 (stereo not drawn) [IV-64]
21 | > 20 | Cc1cc(C)n2ccc(C(=O)NC(CC(C)C)c3ccccc3)c2n1 (stereo not drawn) [IV-66]
22 | > 20 | Cc1cc(C)n2ccc(C(=O)NC(C)C3(c4ccccc4)CCCC3)c2n1 (stereo not drawn) [IV-73]
23 | > 20 | CCOc1ccccc1C(C)NC(=O)c1ccn2c(C)cc(C)nc12 (stereo not drawn) [IV-78]
24 | > 20 | Cc1cc(C)n2ccc(C(=O)NC(C)c3ccc4c(c3)CC(C)O4)c2n1 (stereo not drawn) [IV-79]

Same assay, conditions: 0.25 h, pH 4.7, test compound at 1.0 μM, 10 nM GCase, 100 nM saposin C, read-out: Percent Gcase Activation 1 μM Test Compound

Row | activation at 1 µM [%] | Structure (SMILES)
25 | < 30 | CCC(NC(=O)c1ccn2c(C)cc(C)nc12)c1cc(C)ccn1 (stereo not drawn) [IV-54]
26 | < 30 | CCC(NC(=O)c1ccn2c(C)cc(C)nc12)c1cccc(C)n1 (stereo not drawn) [IV-55]
27 | > 60 | CCC(NC(=O)c1ccn2c(C)cc(C)nc12)c1ccc(F)cc1 (stereo not drawn) [IV-56]
28 | 30 to 60 | CCC(NC(=O)c1ccn2c(C)cc(C)nc12)c1nc(C2CC2)no1 (stereo not drawn) [IV-58]
29 | > 60 | CCC(NC(=O)c1ccn2c(C)cc(C)nc12)c1ccc(Cl)cc1 (stereo not drawn) [IV-59]
30 | > 60 | COc1ccc(C(C)NC(=O)c2ccn3c(C)cc(C)nc23)cc1F (stereo not drawn) [IV-61]
31 | > 60 | CCC(NC(=O)c1ccn2c(C)cc(C)nc12)c1ccc2c(c1)OCCO2 (stereo not drawn) [IV-62]
32 | > 60 | Cc1cc(C)n2ccc(C(=O)NC(C)c3nc4c(s3)CCCC4)c2n1 (stereo not drawn) [IV-64]
33 | > 60 | Cc1cc(C)n2ccc(C(=O)NC(CC(C)C)c3ccccc3)c2n1 (stereo not drawn) [IV-66]
34 | > 60 | Cc1cc(C)n2ccc(C(=O)NC(C)C3(c4ccccc4)CCCC3)c2n1 (stereo not drawn) [IV-73]
35 | > 60 | CCOc1ccccc1C(C)NC(=O)c1ccn2c(C)cc(C)nc12 (stereo not drawn) [IV-78]
36 | > 60 | Cc1cc(C)n2ccc(C(=O)NC(C)c3ccc4c(c3)CC(C)O4)c2n1 (stereo not drawn) [IV-79]
